{
  "source": "patent US10053721B2",
  "about": "“Antimicrobial resistance status determination device and method” (bioMerieux, Inc., priority 2015, dated 2018)",
  "type_in_all_cases": "cell-based",
  "key": {"S. aureus strains": {"test_system": "S. aureus strains", "assay": "Methicillin-resistant Staphylococcus aureus (MRSA) assay, optical density growth curves", "conditions": "6 μg/mL cefoxitin", "method": "The BacT/ALERT® SA bottles were inoculated as described in Example A. The positive broth dilution for the MRSA Assay was performed as follows: broth containing a S. aureus isolate was diluted 1:20 into glass tubes containing 9.0 mL of pre-warmed CAMBH, 0.05% saponin and ±6 μg/mL cefoxitin. Ten (10) S. aureus strains representing diverse phenotypes were tested (5 resistant and 5 sensitive).\n(§1) Each strain was sub-cultured without the drug as a growth control. The resistance assay tubes (15 mL tubes fitted with septum screw-caps for diluting and sampling) were incubated in a custom-built, heated, rocking optical density unit, placed within a resistance module, and time-dependent changes in the optical at 660 nm of each culture tube were measured every 45 seconds for periods of up to 12 hours. To maximize microbial growth and minimize measurement noise, tubes were rocked between +/−18 degrees from horizontal at 36 cycles/min for 30 seconds, then returned to the upright position for 15 seconds before an optical density reading was taken.\nTo detect MRSA directly from positive blood cultures, 10 broth samples containing S. aureus strains representing diverse phenotypes were sub-cultured for up to 12 hours with and without 6 μg/mL of cefoxitin (5 resistant and 5 sensitive strains).\nTo better discriminate microbial growth from background increases in media optical density, slopes of the growth curves were calculated and plotted (FIGS. 7B, 7D, and 7F)."}, "[1]": {"test_system": "K. pneumoniae or E. coli isolates", "assay": "Carbapenem-resistant Enterobacteriaceae (CRE) assay, optical density at 660 nm over time", "conditions": "4 ug/mL imipenem; 8 strains harboring carbapenemase genes", "method": "BacT/ALERT® SA bottles were inoculated with 10 mL of SPS-anticoagulated normal human blood and seeded with <100 CFU of S. aureus, E. faecalis, E. faecium, E. coli and K. pneumoniae isolates. Within 15 minutes of flagging positive, the bottles were manually unloaded and either tested immediately or kept on ice until tested. If chilled, a positive bottle was warmed in a 36° C. water bath for 15-20 minutes before removing samples. The positive broth dilutions were performed manually. […]\nas §1, with “taken. […]” for “taken.”"}, "[2]": {"test_system": "van B containing E. faecalis strains", "assay": "MIC of van B containing E. faecalis strains"}, "E. faecium strains": {"test_system": "E. faecium strains", "assay": "Vancomycin-resistant enterococci (VRE) assay, optical density growth curves", "conditions": "6 μg/mL vancomycin; all 17 resistant E. faecium strains", "method": "(§2) The BacT/ALERT® SA bottles were inoculated as described in Example A. The positive broth dilution for the […] was performed as follows: broth containing E. faecium or E. faecalis isolates was spun for 10 seconds @10,600 g in a 1.5 mL microcentrifuge tube to sediment red blood cells (RBC). One (1.0) mL of the RBC depleted supernatant was recovered and diluted into 4.0 mL of pre-warmed BacT/ALERT® SA media±6 μg/mL vancomycin. Thirty-one (31) E. faecium and 7 E. faecalis strains were tested (23 resistant and 15 sensitive).\n(§3) To rapidly detect VRE in positive blood cultures, 38 broth samples containing E. faecium and E. faecalis strains were depleted of red blood cells and then diluted 1:5 in BacT/ALERT® SA blood culture media with and without 6 μg/mL of vancomycin (23 resistant and 15 sensitive strains)."}, "E. faecalis strains": {"test_system": "E. faecalis strains", "assay": "Vancomycin-resistant enterococci (VRE) assay, optical density growth curves", "method": "as §2, §3"}},
  "note": "Where two headings read alike, the source gives them in different places.",
  "data": [
    {"smiles": "CO[C@@]1(NC(=O)Cc2cccs2)C(=O)N2C(C(=O)O)=C(COC(N)=O)CS[C@@H]21", "note": "[cefoxitin]", "values": [
      {"measurement": "time to growth in cefoxitin media", "setting": "S. aureus strains; 3 of the 5 MRSA strains", "result": "≤ 2", "unit": "h"},
      {"measurement": "growth in cefoxitin media", "setting": "S. aureus strains; 5 sensitive S. aureus strains, by 12 hours", "result": "failed to grow"},
      {"measurement": "slopes of the growth curves", "setting": "S. aureus strains; 5 sensitive strains, after 60 min equilibration, over 720 min", "result": "decreasing or flat slopes"},
      {"measurement": "time to growth in cefoxitin media", "setting": "S. aureus strains; Positive Control MRSA strain ATCC 43300", "result": "≤ 2.5", "unit": "h"},
      {"measurement": "time to growth in cefoxitin media", "setting": "S. aureus strains; weakly resistant MRSA strain (E-test MIC=16 ug/mL)", "result": "≤ 4.5", "unit": "h"}
    ]},
    {"smiles": "C[C@@H](O)[C@H]1C(=O)N2C(C(=O)O)=C(SCCN=CN)C[C@H]12", "note": "[imipenem]", "values": [
      {"measurement": "time to growth in the presence of imipenem", "setting": "[1]", "result": "≤ 2", "unit": "h"}
    ]},
    {"smiles": "CN[C@H](CC(C)C)C(=O)N[C@H]1C(=O)N[C@@H](CC(N)=O)C(=O)N[C@H]2C(=O)N[C@H]3C(=O)N[C@H](C(=O)N[C@H](C(=O)O)c4cc(O)cc(O)c4-c4cc3ccc4O)[C@H](O)c3ccc(c(Cl)c3)Oc3cc2cc(c3O[C@@H]2O[C@H](CO)[C@@H](O)[C@H](O)[C@H]2O[C@H]2C[C@](C)(N)[C@H](O)[C@H](C)O2)Oc2ccc(cc2Cl)[C@H]1O", "note": "[vancomycin]", "values": [
      {"measurement": "MIC", "setting": "[2]; CLSI Positive Control strain ATCC 51299, in µg/mL", "result": "16-24"},
      {"measurement": "MIC", "setting": "[2]; Enterococcus faecalis, three van B containing E. faecalis strains, read-out: MIC", "result": "16 to 64", "unit": "µg/mL"},
      {"measurement": "time to detection of growth with vancomycin", "setting": "E. faecium strains", "result": "≤ 2", "unit": "h"},
      {"measurement": "time to detection of growth with vancomycin", "setting": "E. faecalis strains; 6 μg/mL vancomycin, three low MIC van B containing E. faecalis strains", "result": "3 to 4", "unit": "h"},
      {"measurement": "time to detection of growth with vancomycin", "setting": "E. faecalis strains; delayed van B isolates, starting subculture optical density raised from <0.10 to 0.25-0.45, data not shown", "result": "2 to 2.5", "unit": "h"}
    ]}
  ]
}
